Test results: PubChem BioAssay (NCI)
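96-well plates; 48 h exposure; 5 concentrations. Endpoints by linear interpolation between flanking doses. Not reached: highest tested concentration assigned. Definition used: TGI = concentration required for complete inhibition of growth.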

What was measured:
Assay in all cases: inhibition of tumour cell growth, NCI panel, 48 h
786-0 renal = system: 786-0 renal
A498 renal = system: A498 renal
A549 NSCLC = system: A549 NSCLC
ACHN renal = system: ACHN renal
CAKI-1 renal = system: CAKI-1 renal
CCRF-CEM leukemia = system: CCRF-CEM leukemia
COLO 205 colon = system: COLO 205 colon
DU-145 prostate = system: DU-145 prostate
EKVX NSCLC = system: EKVX NSCLC
HCC-2998 colon = system: HCC-2998 colon
HCT-116 colon = system: HCT-116 colon
HCT-15 colon = system: HCT-15 colon
HL-60(TB) leukemia = system: HL-60(TB) leukemia
HOP-92 NSCLC = system: HOP-92 NSCLC
HS 578T breast = system: HS 578T breast
IGROV1 ovarian = system: IGROV1 ovarian
K-562 leukemia = system: K-562 leukemia
KM12 colon = system: KM12 colon
LOX IMVI melanoma = system: LOX IMVI melanoma
M14 melanoma = system: M14 melanoma
MALME-3M melanoma = system: MALME-3M melanoma
MCF7 breast = system: MCF7 breast
MDA-MB-231 breast = system: MDA-MB-231 breast
MDA-MB-435 = system: MDA-MB-435
MDA-N = system: MDA-N
MOLT-4 leukemia = system: MOLT-4 leukemia
NCI-H23 lung = system: NCI-H23 lung
NCI-H460 lung = system: NCI-H460 lung
NCI-H522 lung = system: NCI-H522 lung
NCI/ADR-RES ovarian = system: NCI/ADR-RES ovarian
OVCAR-3 ovarian = system: OVCAR-3 ovarian
OVCAR-4 ovarian = system: OVCAR-4 ovarian
OVCAR-5 ovarian = system: OVCAR-5 ovarian
OVCAR-8 ovarian = system: OVCAR-8 ovarian
RPMI-8226 leukemia = system: RPMI-8226 leukemia
SF-268 CNS = system: SF-268 CNS
SF-295 CNS = system: SF-295 CNS
SF-539 CNS = system: SF-539 CNS
SK-MEL-2 melanoma = system: SK-MEL-2 melanoma
SK-MEL-28 melanoma = system: SK-MEL-28 melanoma
SK-OV-3 ovarian = system: SK-OV-3 ovarian
SN12C renal = system: SN12C renal
SNB-19 CNS = system: SNB-19 CNS
SNB-75 CNS = system: SNB-75 CNS
SR leukemia = system: SR leukemia
SW-620 colon = system: SW-620 colon
T-47D breast = system: T-47D breast
TK-10 renal = system: TK-10 renal
U251 CNS = system: U251 CNS
UACC-257 melanoma = system: UACC-257 melanoma
UACC-62 melanoma = system: UACC-62 melanoma
UO-31 renal = system: UO-31 renal
HOP-62 NSCLC = system: HOP-62 NSCLC
HT29 colon = system: HT29 colon
NCI-H226 lung = system: NCI-H226 lung
PC-3 prostate = system: PC-3 prostate
RXF 393 renal = system: RXF 393 renal
SK-MEL-5 melanoma = system: SK-MEL-5 melanoma

Compound `COC(=O)CCCC(=O)NC1=C(Nc2ccccc2)C(=O)c2ccccc2C1=O` has a TGI (786-0 renal) of 33.5 µM, a TGI (A498 renal) of 32.5 µM and a TGI (A549 NSCLC) of 36.8 µM. It also gave a TGI (ACHN renal) of 62.2 µM, a TGI (CAKI-1 renal) of 44 µM and a TGI (CCRF-CEM leukemia) of 76.2 µM. For the same compound, the TGI (COLO 205 colon) was 35.7 µM, the TGI (DU-145 prostate) was 29.4 µM and the TGI (EKVX NSCLC) was 49.7 µM. The TGI (HCC-2998 colon) was 29.5 µM, the TGI (HCT-116 colon) was 32.7 µM and the TGI (HCT-15 colon) was 41.1 µM. The TGI (HL-60(TB) leukemia) was 49.7 µM, the TGI (HOP-92 NSCLC) was 73.6 µM and the TGI (HS 578T breast) was 84.4 µM. For the same compound, the TGI (IGROV1 ovarian) was 30.2 µM, the TGI (K-562 leukemia) was 47.3 µM and the TGI (KM12 colon) was 20.2 µM. The TGI (LOX IMVI melanoma) was 41.6 µM, the TGI (M14 melanoma) was 29.6 µM and the TGI (MALME-3M melanoma) was 12.9 µM. The TGI (MCF7 breast) was 32.1 µM, the TGI (MDA-MB-231 breast) was 43.8 µM and the TGI (MDA-MB-435) was 17.4 µM. For the same compound, the TGI (MDA-N) was 15 µM, the TGI (MOLT-4 leukemia) was 45.5 µM and the TGI (NCI-H23 lung) was 29.6 µM. It also gave a TGI (NCI-H460 lung) of 33.7 µM, a TGI (NCI-H522 lung) of 35.3 µM and a TGI (NCI/ADR-RES ovarian) of 56 µM. The TGI (OVCAR-3 ovarian) was 38 µM, the TGI (OVCAR-4 ovarian) was 37.1 µM and the TGI (OVCAR-5 ovarian) was 30.7 µM. The TGI (OVCAR-8 ovarian) was greater than 100 µM, the TGI (RPMI-8226 leukemia) was 59.7 µM and the TGI (SF-268 CNS) was 96.3 µM. It also gave a TGI (SF-295 CNS) of 33 µM, a TGI (SF-539 CNS) of 35 µM and a TGI (SK-MEL-2 melanoma) of 34.2 µM. The TGI (SK-MEL-28 melanoma) was 30.3 µM, the TGI (SK-OV-3 ovarian) was 53.4 µM and the TGI (SN12C renal) was 45.1 µM. For the same compound, the TGI (SNB-19 CNS) was 34.6 µM, the TGI (SNB-75 CNS) was 33.8 µM and the TGI (SR leukemia) was greater than 100 µM. It also gave a TGI (SW-620 colon) of 52.4 µM, a TGI (T-47D breast) of 64.8 µM and a TGI (TK-10 renal) of 49.7 µM. It also gave a TGI (U251 CNS) of 29.3 µM, a TGI (UACC-257 melanoma) of 26.4 µM and a TGI (UACC-62 melanoma) of 11.9 µM. The TGI (UO-31 renal) was 46.1 µM.
In the case of `COc1cc(CNc2nc3ccccc3n2Cc2ccccc2)cc(CN2CCOCC2)c1O`, the TGI (786-0 renal) is reported as 31.6 µM, the TGI (A498 renal) is reported as 39.2 µM and the TGI (A549 NSCLC) is reported as greater than 100 µM. For the same compound, the TGI (ACHN renal) was greater than 100 µM, the TGI (CAKI-1 renal) was greater than 100 µM and the TGI (CCRF-CEM leukemia) was greater than 100 µM. It also gave a TGI (COLO 205 colon) of 40.1 µM, a TGI (DU-145 prostate) greater than 100 µM and a TGI (EKVX NSCLC) greater than 100 µM. It also gave a TGI (HCC-2998 colon) of 85.1 µM, a TGI (HCT-116 colon) of 41.7 µM and a TGI (HCT-15 colon) of 70.6 µM. The TGI (HOP-62 NSCLC) was 65.2 µM, the TGI (HOP-92 NSCLC) was 56.3 µM and the TGI (HS 578T breast) was 80.9 µM. It also gave a TGI (HT29 colon) of 70.4 µM, a TGI (IGROV1 ovarian) greater than 100 µM and a TGI (K-562 leukemia) of 53.1 µM. For the same compound, the TGI (KM12 colon) was greater than 100 µM, the TGI (LOX IMVI melanoma) was 30.7 µM and the TGI (M14 melanoma) was 40.4 µM. The TGI (MALME-3M melanoma) was 34 µM, the TGI (MCF7 breast) was 79.5 µM and the TGI (MDA-MB-231 breast) was 38.1 µM. The TGI (MDA-MB-435) was 44.7 µM, the TGI (MDA-N) was 68.2 µM and the TGI (MOLT-4 leukemia) was greater than 100 µM. It also gave a TGI (NCI-H226 lung) of 82.8 µM, a TGI (NCI-H23 lung) greater than 100 µM and a TGI (NCI-H460 lung) greater than 100 µM. For the same compound, the TGI (NCI-H522 lung) was 78.2 µM, the TGI (NCI/ADR-RES ovarian) was 65.6 µM and the TGI (OVCAR-3 ovarian) was 56.6 µM. It also gave a TGI (OVCAR-4 ovarian) greater than 100 µM, a TGI (OVCAR-5 ovarian) of 87.8 µM and a TGI (OVCAR-8 ovarian) greater than 100 µM. It also gave a TGI (PC-3 prostate) of 99.5 µM, a TGI (RPMI-8226 leukemia) greater than 100 µM and a TGI (RXF 393 renal) of 47.7 µM. For the same compound, the TGI (SF-268 CNS) was greater than 100 µM, the TGI (SF-295 CNS) was 41.6 µM and the TGI (SF-539 CNS) was 34.5 µM. It also gave a TGI (SK-MEL-2 melanoma) of 47.5 µM, a TGI (SK-MEL-28 melanoma) of 34.6 µM and a TGI (SK-MEL-5 melanoma) of 34.2 µM. The TGI (SK-OV-3 ovarian) was greater than 100 µM, the TGI (SN12C renal) was greater than 100 µM and the TGI (SNB-19 CNS) was greater than 100 µM. For the same compound, the TGI (SNB-75 CNS) was 83.9 µM, the TGI (SW-620 colon) was greater than 100 µM and the TGI (T-47D breast) was greater than 100 µM. It also gave a TGI (TK-10 renal) of 65.9 µM, a TGI (U251 CNS) of 93.1 µM and a TGI (UACC-257 melanoma) of 39.9 µM. For the same compound, the TGI (UACC-62 melanoma) was 45.2 µM and the TGI (UO-31 renal) was 52.5 µM.
